Measurements from patent US20260069599A1, “INHIBITORS OF BROMODOMAIN-CONTAINING PROTEIN 4 AND PHOSPHOINOSITIDE 3-KINASE” (Board of Regents of the University of Nebraska, priority 2022, published 2026).
Entries after “also recorded” stand apart in the source; their conditions may differ. Read-outs that look alike come from different tables or passages of the source.

Columns and labels:
DAOY cells [1] = assay: Cell viability MTT assay in DAOY cells; format: cell-based, human; conditions: 48-72 hours
Description: (§1) For cell viability assay, DAOY cells from SHH-MB group and HD-MB03 from Group 3 MB were exposed to new analogs in a range of concentrations. In brief, cells were seeded in 96-well plate with a density of 3×10^3 cells/well density for 16 hours. Cells were then treated with different drug concentrations for 48-72 hours. MTT assay reagent was added to the cells and after incubation for 4 hours, formazan crystals were dissolved in 200 μL DMSO, and the absorbance was determined using a microplate reader (Molecular Devices Me5). The IC50 was determined by nonlinear least square regression by performing each experiment in triplicate.

HD-MB03 cells [2] = assay: Cell viability MTT assay in HD-MB03 cells; format: cell-based, human
Description: as §1

DAOY cells [3] = assay: Cell cycle analysis in DAOY cells; format: cell-based, human; conditions: 5 μM, 48 hours; control 52.8%
Description: (§2) FIGS. 3A-3F show the effect of MDP5 treatment on cell cycle analysis, induction of apoptosis, and colony formation assay in MB cells. […] Histograms show the quantitative analysis of cell cycle assay for DAOY (FIG. 3A) and HD-MB03 (FIG. 3B) cells (n=5; mean±S.D., p<0.05). […] FIG. 3C provides images of cells treated with the indicated compounds. […] FIGS. 3D and 3E provide graphs of the apoptotic assay showing higher numbers of apoptotic cells in MDP5 treated groups (n=5; mean±S.D.; p<0.05). FIG. 3F provides a graph of the relative expression of BCL2 and MYCN target genes after treatment, as determined by RT-PCR.
(§3) Cell cycle distribution was determined in proliferating MB cells. […] Cells were harvested with 0.25% EDTA-free trypsin (Gibco) and washed twice in ice-cold PBS. Control and treated cells (0.1×10^6) were stained with FxCycle™ PI/RNase Staining Solution (ThermoFisher Scientific) and analyzed for DNA content via flow cytometry.

HD-MB03 cells [4] = assay: Cell cycle analysis in HD-MB03 cells; format: cell-based, human; conditions: 5 μM, 48 hours; control 44.7%
Description: as §2, §3

DAOY cells [5] = assay: Annexin V/PI apoptosis assay in DAOY cells; format: cell-based, human; conditions: 48 hours of treatment; untreated 25.61%
Description: (§4) For apoptosis assay, the cells were collected as above and stained with 500 μL 1× binding buffer containing 5 μL annexin V-FITC and 10 μL propidium iodide (PI) in the dark for 5 minutes. Flow cytometry (FACSCalibur™ cytometer, BD Biosciences) was performed to quantify and calculate the cell apoptosis rate. AV-FITC values were set horizontally, and PI values were set as vertical axes. All experiments were performed in triplicate.

HD-MB03 cells [6] = assay: Annexin V/PI apoptosis assay in HD-MB03 cells; format: cell-based, human; conditions: 48 hours of treatment; untreated 29.76%
Description: as §4

HD-MB03 and DAOY cells = assay: Western blot of target proteins; format: cell-based, human; conditions: for GLI1 and GLI2 protein expression: HD-MB03 and DAOY cells
Description: FIGS. 4A and 4B provide images of western blot analyses of target proteins after HDMB03 and DAOY cells were incubated with 5.0 μM of the indicated compounds for 48 hours. FIG. 4C (HD-MB03) and 4D (DAOY) provide western blot images which show the effects of MDP5 treatment on target proteins including GLI1 and GLI2. FIG. 4E provides representative confocal images of DAOY and HD-MB03 spheroids after treatment with 5.0 μM MDP5. […] Spheroids were stained for live (calcein AM) and dead (ethidium homodimer-1) cells after 7 days of treatment. Scale bars=200 μm. […] Next, cells were incubated with APC-CD15 for 30 minutes on ice in the dark. Before FACS analysis, samples were washed thrice with a staining buffer. FIG. 4G provides a graph showing the quantitation of CD15+ cells (n=3; p<0.05, control vs. treatment groups).
The whole protein from each treated group was extracted using RIPA buffer containing a cocktail of protease inhibitors (Sigma-Aldrich) for protein level determination. Protein concentration was determined using a BCA assay (Peirce). Next, 40 μg protein was subject to SDS-PAGE in a 10% gel. Following the transfer of targeted proteins onto polyvinylidene difluoride sheets, the membranes were washed with Tris-buffered saline plus Tween® 20 (TTBS; cat. no. WLA025; Wanleibio Co., Ltd.) for 5 minutes and then blocked with skimmed milk powder solution for 1 hour. Primary antibodies against Gli1 (1:1000), Gli2 (1:1000), MYCN (1:1,000), p-MYCN (1:1,000), Bcl-2 (1:1000), Bax (1:1000), p-PI3K (1:500), PI3K (1:1000), p-Akt (1:500), Akt (1:1000), Cyclin D1 (1:1000), and β-actin (1:1,000) were added and the membranes were incubated at 4° C. overnight. After an additional four washes with TBST, secondary IgG antibodies conjugated to horseradish peroxidase (1:5,000) were incubated with the membranes for 45 minutes at 37° C. Following a further six washes with TBST, the blots were developed using ECL start Western blotting detection kit (GE Healthcare) and the results were recorded in the iBright™ FL100 (Invitrogen). The relative expression levels of these proteins in different groups were calculated with the iBright™ software.

ONS-76 cells = assay: Side population (SP) assay; format: cell-based; conditions: 30 minutes preincubation; control 4.57%
Description: After washing thrice with staining buffer, 1×10^6 cells were stained with 5 μg/mL of Hoechst 33342 (Thermo Scientific; 62,249) for 1 hour in an incubator with occasional shaking every 20 minutes. The PI solution 5 μL was added to exclude dead cells and analyzed with flow cytometry (LSRII, BD Biosciences).

[7] = system: DAOY and HD-MB03 cell-generated tumors; assay: Subcutaneous MB tumor xenograft model; format: in vivo; conditions: for tumor growth / tumor burden: 15 mg/kg dose, vs vehicle treated control
Description: All the animal-related experiments were performed according to the Institutional Animal Care and Use Committee (IACUC) of the University of Nebraska Medical Center's approved protocol and met federal guidelines. Subcutaneous and orthotopic xenograft models were generated in this study. For establishing the xenograft model, DAOY cells (1×10^6) were injected into the right flank of 8-10 weeks old male and female mice. Tumor growth was measured non-invasively by using vernier calipers. For both measurements, tumor volumes were calculated by using the following formula: Volume=(Length×Width^2)/2.
A total of seven injections were given, and the mouse body weights were measured before every injection. The tumor growth was monitored by calipers in the case of the xenograft model and by IVIS imaging for the orthotopic model. For histological examination, the major organs of representative mice from each animal group were dissected and stained with H&E. Tissues after being fixed with 10% paraformaldehyde solution for 24 hours were embedded in 5 μm thick sections of paraffin, and were stained for different proteins. Stained slides were imaged at 40× magnification using an iScan HT Slide Scanner (Ventana Medical Systems, Inc, AZ).

SMILES | IC50 (DAOY cells [1]; Homo sapiens, Daoy) [µM] | cells in the G1 phase, DAOY (DAOY cells [3]) [%] | cells in the G1 phase, HD-MB03 (HD-MB03 cells [4]) [%] | percentage of apoptotic cells, DAOY (DAOY cells [5]) [%] | percentage of apoptosis, HD-MB03 (HD-MB03 cells [6]) [%] | GLI1 and GLI2 protein expression (HD-MB03 and DAOY cells) | percentage of SP proportion (ONS-76 cells) [%] | tumor growth / tumor burden [7] | IC50 (DAOY cells [1]) [µM] | other results
O=C(/C=C/N1CCOCC1)c1cccc(-c2cc3c(cc2Br)OCCO3)c1O [MDP1, (E)-1-(3-(7-bromo-2,3-dihydrobenzo [b][1,4]dioxin-6-yl)-2-hydroxyphenyl)-3-morpholinoprop-2-en-1-one] | 5.51 | 40.1 | 26.2 | 61.31 | 65.66 | decrease in levels of both proteins | 0.7 | significant inhibition of tumor growth | – | IC50 (HD-MB03 cells [2]; Homo sapiens, HD-MB03, 48-72 hours, read-out: IC50 in HD-MB03 cells): 5.56 µM
O=c1cc(N2CCOCC2)oc2c(-c3ccc4c(c3)OCCO4)cccc12 [MDP5, 8-(2,3-dihydrobenzo [b][1,4]dioxin-6-yl)-2-morpholino-4H-chromen-4-one] | 5.57 | 73.2 | 52.2 | 70.35 | 65.15 | decrease in levels of both proteins | 0.9 | significant inhibition of tumor growth | 5.5 | IC50 (HD-MB03 cells [2]; Homo sapiens, HD-MB03, 48-72 hours, read-out: IC50 in HDMB-03 cells (unit printed M)): 5.14 µM; Cyclin D1, p-AKT (Ser473) and p-PI3K protein levels (HD-MB03 and DAOY cells; 5.0 μM, 48 hours): reduced; p-MYCN (Ser54) level (HD-MB03 and DAOY cells; 5.0 μM, 48 hours): explicitly induced; GLI1 protein expression in HD-MB03 cells (HD-MB03 and DAOY cells; among treated HD-MB03 cells): largest reduction in GLI1 protein expression; toxicity / tolerability by body weight ([7]; 20 mg/kg i.v. every third day): no sign of toxicity; also recorded: well tolerated (no bodyweight change); histologic examination of major organs (liver, lung, spleen, heart, kidneys) ([7]; 20 mg/kg, after completion of treatment): did not demonstrate toxicity; tumor growth (tumor volume) ([7]; 20 mg/kg, vs vehicle/control group): significantly affected tumor growth; also recorded: reduced tumor growth compared to the control group; H&E staining and Ki-67 IHC of tumors ([7]; DAOY and HD-MB03 generated tumors): suppressed cell proliferation and decreased tumor burden; tolerability by body weight and histological examination of vital organs ([7]; tested dose of b195 (15 mg/kg), vs vehicle control): well tolerated
O=c1cc(N2CCOCC2)oc2c(-c3ccc4c(c3)OCCO4)csc12 [SF2523, reference compound] | – | 73.1 | 58.9 | 56.50 | 54 | – | 2.57 | significant inhibition of tumor growth | 12.6 | IC50 (HD-MB03 cells [2]; 48-72 hours, read-out: IC50 in HD-MB03 cells): 5.14 µM; GLI2 protein accumulation (HD-MB03 and DAOY cells; compared with other treatments): exceeded all other treatment options in terms of lowering GLI2 protein accumulation
